# From patent US20030044974A1, “Method for collecting cells in M phase or G1 phase and method for nuclear transplantation using the cells” (priority 2001, published 2003)
# Marks after values point to notes of the source that are not given here.
# Key:
# bovine fibroblast cells [1] = experiment: Combination of metaphase-synchronizing agent and shaking treatment: cell cycles of cells recovered from culture supernatant (Comparative Example 2); type: cell-based
# Description: Fibroblast Cells and Observation Thereof Fetal fibroblast cells were recovered by collecting the medium containing the cells in a 15 ml test tube and by centrifuging the medium (180g, 5 minutes). After the centrifugation, the cell precipitate was resuspended with a small amount of the medium, and the resulting cell suspension was uniformly smeared on a slide glass. The slide glass was air-dried at room temperature and the cells were fixed (99.9% ethanol, 5 minutes) to prepare preparations.
# Thirty minutes later, the whole culture supernatant was recovered after subjecting the petri dish to shaking treatment, or without the shaking treatment. The shaking treatment was carried out by intimately attaching the bottom plate of the plastic petri dish to a mixer (IKEDA RIKA, D-10) and driving the mixer to circularly move the petri dish for 1 minute (3000 rpm, diameter of circular movement: 0.3 cm). […] The cell pellet was resuspended in a small amount of the medium and the obtained cell suspension was smeared on a slide glass.
# How the cell cycles of the cells recovered from the culture supernatant change by combination of the metaphase-synchronizing agent (2-MeOE2) and the shaking treatment was investigated with successively repeating the step of shaking treatment and the subsequent recovery 3 times. […] Thirty minutes later, shaking treatment was performed as in the first time and the second time, and the culture supernatant was centrifuged to recover the cells (third time recovered cells). The cells obtained using different concentrations of the metaphase-synchronizing agent and obtained in different times of recovery were respectively resuspended in a small amount of the medium and smear preparations were prepared. The smear preparations were air-dried, fixed, stained and observed.
# bovine fibroblast cells [2] = experiment: Collection of M phase cells: synchronization, shaking treatment and selection by size with 20 μm pipette (Example 1)
# Description: As the bovine fibroblast cells (Japanese black), the cells from a fetal at Day 54 from conception were used. The recovered fetus was aseptically minced and digested with trypsin. The cell suspension was recovered and cultured in Dulbecco's modified eagle medium (D-MEM, Gibco BRL, Cat No. 11885-084, MD, USA), followed by storing frozen cells (one passage). For experiments, the frozen stored cells seeded on a 10 cm plastic petri dish (Falcon, 353003) were once subcultured, and the cells grown to logarithmic growth phase were used.
# For synchronization to metaphase, 10% FBS-containing minimum essential medium (S-MEM, Cat. No.11385-036,Gibco BRL, MD, USA) supplemented with 2-methoxyestadiol (2-MeOE2, Cat No.M6383, Sigma chemical Co., MO, USA) to a concentration of 0.5 μM or 1 μM was used.
# Each preparation was stained with Hoechst 33342 (Sigma Chemical Co, MO, USA) and observed with a fluorescence microscope. Only the cells having clear boundary of cell membrane were used for judgment. In Comparative Examples 1 and 2, the cells in prophase, metaphase, anaphase and telophase of cell cycle were classified into the cells in mitotic phase (M phase). The cells containing only one nucleus covered with a nuclear membrane were judged as the cells in interphase. The cells in which the nucleus in the cytoplasm is fragmented, the cells containing no nucleus in the cytoplasm, and the cells having a lot of nuclei in the cytoplasm were judged as abnormal cells. In Examples 1 and 2, M phase cells were further classified into normal metaphase cells (the one nucleus in metaphase is located in the cytoplasm) and abnormal metaphase cells (the two or more nuclei in metaphase are located in the cytoplasm). The cells in interphase were classified into normal interphase cells (only one nucleus having nuclear membrane exists in the cytoplasm) and abnormal interphase cells (two or more nuclei having nuclear membrane exist in the cytoplasm, or the nucleus in the cytoplasm is fragmented).
# D-MEM medium in a petri dish containing cells in logarithmic growth phase was replaced with 5 ml of S-MEM medium containing 1.0 μM 2-MeOE2, and the culturing was continued. Thirty minutes later, the shaking treatment was carried out as in Comparative Example 1 and the culture supernatant was discarded. To the petri dish after discarding the culture supernatant, fresh S-MEM medium containing 1 μM 2-MeOE2 was added and the culture was continued for another 30 minutes. Thirty minutes later, the shaking treatment was carried out as described above and the culture supernatant was centrifuged (1000 rpm, 5 minutes) to recover the cells (second time recovered cells). An aliquot of the collected cells was transferred to D-MEM medium containing 1 μM 2-MeOE2, and substantially spherical cells having clear boundary of cell membrane and having a diameter slightly larger than 20 μm were selected within 30 minutes using a glass pipette (COOK, Cat.No.PBBP-2000) having an inner diameter of 20 μm. The selected cells were immediately transferred to phosphate buffered saline (D-PBS) containing Hoechst33342 and 1 μM 2-MeOE2, and cell cycles were determined under an inverted fluorescence microscope.
# cells = conditions: nocodazole treatment, cells collected by the shaking method; cited from earlier work
# [3] = 0.5 μM 2-MeOE2, first time recovered cells
# [4] = 0.5 μM 2-MeOE2, first time recovered cells, of 2046 observed cells
# [5] = 0.5 μM 2-MeOE2, second time recovered cells
# [6] = 0.5 μM 2-MeOE2, second time recovered cells, of 2078 observed cells
# [7] = 0.5 μM 2-MeOE2, third time recovered cells
# [8] = 0.5 μM 2-MeOE2, third time recovered cells, of 2052 observed cells
# [9] = 1 μM 2-MeOE2, first time recovered cells
# [10] = 1 μM 2-MeOE2, first time recovered cells, of 2033 observed cells
# [11] = 1 μM 2-MeOE2, second time recovered cells
# [12] = 1 μM 2-MeOE2, second time recovered cells, of 2075 observed cells
# [13] = 1 μM 2-MeOE2, third time recovered cells
# [14] = 1 μM 2-MeOE2, third time recovered cells, of 2126 observed cells
# [15] = 1 μM 2-MeOE2, second culture, shaking treatment, diameter not less than about 20 μm
# [16] = 1 μM 2-MeOE2, second time recovered cells, 20 μm pipette, of 249 observed cells
# [17] = 1 μM 2-MeOE2, second time recovered cells, selected with 20 μm pipette
compound,measurement,setting,value
"COc1cc2c(cc1O)CC[C@@H]1[C@@H]2CC[C@]2(C)[C@@H](O)CC[C@@H]12 [2-MeOE2, 2-methoxyestradiol]",Number of Metaphase Cells (mean ± SD(%)),"bovine fibroblast cells [1]; 0.5 μM 2-MeOE2, 30 min, first time recovered cells, shaking treatment",(28.8 ± 3.0^a) %
same,Number of Abnormal Cells (mean ± SD(%)),bovine fibroblast cells [1]; [3],(15.4 ± 5.8^a) %
same,Number of Normal Interphase Cells (mean ± SD(%)),bovine fibroblast cells [1]; [3],(55.8 ± 3.6^a) %
same,Number of Abnormal Cells,bovine fibroblast cells [1]; [4],313
same,Number of Metaphase Cells,bovine fibroblast cells [1]; [4],591
same,Number of Normal Interphase Cells,bovine fibroblast cells [1]; [4],1142
same,Number of Abnormal Cells (mean ± SD(%)),bovine fibroblast cells [1]; [5],(6.6 ± 4.2^bc) %
same,Number of Metaphase Cells (mean ± SD(%)),bovine fibroblast cells [1]; [5],(45.2 ± 7.9^bc) %
same,Number of Abnormal Cells,bovine fibroblast cells [1]; [6],135
same,Number of Metaphase Cells,bovine fibroblast cells [1]; [6],940
same,Number of Normal Interphase Cells,bovine fibroblast cells [1]; [6],1003
same,Number of Abnormal Cells (mean ± SD(%)),bovine fibroblast cells [1]; [7],(6.4 ± 3.9^c) %
same,Number of Metaphase Cells (mean ± SD(%)),bovine fibroblast cells [1]; [7],(46.0 ± 7.5^c) %
same,Number of Normal Interphase Cells (mean ± SD(%)),bovine fibroblast cells [1]; [7],(47.6 ± 4.7^c) %
same,Number of Abnormal Cells,bovine fibroblast cells [1]; [8],130
same,Number of Metaphase Cells,bovine fibroblast cells [1]; [8],945
same,Number of Normal Interphase Cells,bovine fibroblast cells [1]; [8],977
same,percentage of the M phase cells,"bovine fibroblast cells [1]; 0.5 μM or 1.0 μM 2-MeOE2 with shaking treatment, first to third time recovered cells, shaking only 26.1%",28.8 to 81.2%
same,Number of Abnormal Cells (mean ± SD(%)),bovine fibroblast cells [1]; [9],(11.4 ± 5.6^d) %
same,Number of Metaphase Cells (mean ± SD(%)),bovine fibroblast cells [1]; [9],(50.1 ± 8.6^d) %
same,Number of Normal Interphase Cells (mean ± SD(%)),bovine fibroblast cells [1]; [9],(38.5 ± 6.8^d) %
same,Number of Abnormal Cells,bovine fibroblast cells [1]; [10],232
same,Number of Metaphase Cells,bovine fibroblast cells [1]; [10],1017
same,Number of Normal Interphase Cells,bovine fibroblast cells [1]; [10],784
same,Number of Abnormal Cells (mean ± SD(%)),bovine fibroblast cells [1]; [11],(3.1 ± 1.5^ef) %
same,Number of Metaphase Cells (mean ± SD(%)),bovine fibroblast cells [1]; [11],(77.7 ± 5.4^e) %
same,Number of Normal Interphase Cells (mean ± SD(%)),bovine fibroblast cells [1]; [11],(19.2 ± 5.0^ef) %
same,Number of Abnormal Cells,bovine fibroblast cells [1]; [12],63
same,Number of Metaphase Cells,bovine fibroblast cells [1]; [12],1614
same,Number of Normal Interphase Cells,bovine fibroblast cells [1]; [12],398
same,Number of Abnormal Cells (mean ± SD(%)),bovine fibroblast cells [1]; [13],(3.2 ± 1.7^f) %
same,Number of Metaphase Cells (mean ± SD(%)),bovine fibroblast cells [1]; [13],(81.2 ± 5.0^f) %
same,Number of Normal Interphase Cells (mean ± SD(%)),bovine fibroblast cells [1]; [13],(15.6 ± 3.3^f) %
same,Number of Abnormal Cells,bovine fibroblast cells [1]; [14],68
same,Number of Metaphase Cells,bovine fibroblast cells [1]; [14],1728
same,Number of Normal Interphase Cells,bovine fibroblast cells [1]; [14],330
same,M phase cells among the collected cells,bovine fibroblast cells [2]; [15],99.1%
same,normal metaphase cells among the collected cells (243/246),bovine fibroblast cells [2]; [15],98.8%
same,Number of Abnormal Interphase Cells,bovine fibroblast cells [2]; [16],0
same,Number of Abnormal Metaphase Cells,bovine fibroblast cells [2]; [16],3
same,Number of Normal Interphase Cells,bovine fibroblast cells [2]; [16],3
same,Number of Normal Metaphase Cells,bovine fibroblast cells [2]; [16],243
same,Number of Abnormal Interphase Cells (mean ± SD(%)),bovine fibroblast cells [2]; [17],(0.0 ± 0.0) %
same,Number of Abnormal Metaphase Cells (mean ± SD(%)),bovine fibroblast cells [2]; [17],(1.3 ± 2.5) %
same,Number of Normal Interphase Cells (mean ± SD(%)),bovine fibroblast cells [2]; [17],(1.0 ± 1.1) %
same,Number of Normal Metaphase Cells (mean ± SD(%)),bovine fibroblast cells [2]; [17],(97.8% ± 2.1)
COC(=O)Nc1nc2ccc(C(=O)c3cccs3)cc2[nH]1 [nocodazole],cells in the metaphase obtained,cells,25 to 34%
